In patent US6458962B1, “Sultams: catalyst systems for asymmetric reduction of a C=N intermediate biological compositions and methods for making the sultams” (The University of Tennesseee Research Corporation, priority 1999, dated 2002):

Assays:
[1] = IC50 in the National Cancer Institute anti-HIV protocol (Weislow et al.), used with EC50 for the TI50; type: cell-based; settings: NCI protocol; read-out: ICSO
Method: (§1) The sultams of the invention were tested in accordance with the National Cancer Institute Protocol, Weislow, O. W., et al. (1989) J. Natl. Cancer Inst. 81:577-586, which is incorporated herein by reference. The protocol is also described in U.S. Pat. No. 5,843,990.

[2] = system: HIV-1; assay: Anti-HIV-1 activity, National Cancer Institute protocol (Weislow et al.); type: cell-based; settings: for EC50: Human immunodeficiency virus 1, read-out: ECSO; for TLSO: ratio IC50/EC50, NCI protocol
Method: as §1
The anti-HIV activity of compounds of the invention illustrated by the formula V shown above, is reported below.
Table III illustrates anti-HIV-1 activities of compounds of the invention, the substituents (shown in formula V).

| Compound | IC50 [1] | melting point | EC50 [2] | TLSO [2] |
| --- | --- | --- | --- | --- |
| Cc1ccccc1C1c2ccccc2S(=O)(=O)N1C (single isomer, unassigned; (+)) [Compound 18, (+)-2-Methyl-3-(2-methylphenyl)-2,3-dihydrobenzo[d]isothiazole 1,1-Dioxide] | 123 µM | 152 °C | 4.68 µM | 26.3 |
| Cc1cccc(C2c3ccccc3S(=O)(=O)N2C)c1 (single isomer, unassigned; (+)) [Compound 7, (+)-2-Methyl-3-(3-methylphenyl)-2,3-dihydrobenzo[d] isothiazole 1,1-Dioxide] | > 2 µM | 154 °C | 0.037 µM | >54 |
| CN1C(c2cccc(F)c2)c2ccccc2S1(=O)=O (single isomer, unassigned; (+)) [Compound 13, (+)-3-(3-Fluorophenyl)-2-methyl-2,3-dihydrobenzo[d]isothiazole 1,1-Dioxide] | 147 µM | 147 °C | 0.179 µM | 538 |
| CN1[C@@H](c2cccc(Cl)c2)c2ccccc2S1(=O)=O [Compound 11, (+)-(S)-3-(3-Chlorophenyl)-2-methyl-2,3-dihydrobenzo[d]isothiazole 1,1-Dioxide] | > 2 µM | 164 °C | 0.086 µM | >31 |
| CN1[C@@H](c2ccccc2)c2ccccc2S1(=O)=O [Compound 5, (+)-(S)-2-Methyl-3-phenyl-2,3-dihydrobenzo[d]isothiazole 1,1-Dioxide] | > 316 µM | 156 to 157 °C | 0.471 µM | >674 |
| CN1[C@@H](c2cccc(Br)c2)c2ccccc2S1(=O)=O [Compound 9, (+)-(S)-3-(3-Bromophenyl)-2-methyl-2,3-dihydrobenzo[d]isothiazole 1,1-Dioxide] | 101 µM | 157 °C | 0.074 µM | 136.5 |
| CN1[C@@H](c2cccc(I)c2)c2ccccc2S1(=O)=O [Compound 15, (+)-(S)-2-Methyl-3-(3-iodophenyl)-2,3-dihydrobenzo[d]isothiazole 1,1-Dioxide] | 62.4 µM | 156 °C | 0.076 µM | 817 |
